According to patent US9364426B2, “Method of making coated microstructures” (Georgia Tech Research Corporation, priority 2005, dated 2016):

What was measured:
[1] = In vitro dissolution of microneedle coating in pig cadaver skin; assay type: in vitro ADME; conditions: single microneedles n=3
Source text: To assess the in vitro dissolution time, single microneedles (n=3) coated with vitamin B, calcein, or sulforhodamine, made as in Example 1, were inserted into pig cadaver skin for 10 s or 20 s. Upon removal, these microneedles were imaged by fluorescence microscopy to detect residual coating.

[2] = Delivery from individual coated microneedles in vitro into pig cadaver skin; assay type: in vitro ADME; conditions: 20 s insertion into pig cadaver skin
Experimental: After removing the microneedles, fluorescence micrographs of coated microneedles and histological skin sections were collected using an Olympus IX70 fluorescent microscope with a CCD camera (RT Slider, Diagnostic Instruments). Brightfield micrographs were collected using an Olympus SZX12 stereomicroscope with a CCD camera (Leica DC 300, Leica Microsystems, Bannockburn, Ill., USA). Histological examination of pig cadaver skin was conducted on frozen sections. Pig cadaver skin was pierced with microneedles for 20 s, frozen in OCT compound (Tissue-Tek, 4583, Sakura Finetek, Torrance, Calif., USA), and cut into 10 μm-thick sections using a cryostat (Cryo-Star HM 560MV, Microm, Waldorf, Germany).

[3] = cited from earlier work
[4] = coated onto microneedles; six months storage under nitrogen at room temperature; cited from earlier work
[5] = system: guinea pigs; conditions: model antigen delivered from coated microneedles; cited from earlier work
[6] = 10 s insertion into pig cadaver skin
[7] = 20 s insertion into pig cadaver skin

O=C(O)CN(CC(=O)O)Cc1cc2c(cc1O)Oc1cc(O)c(CN(CC(=O)O)CC(=O)O)cc1C21OC(=O)c2ccccc21 [calcein]
dissolution of microneedle coating (residual coating by fluorescence microscopy) [1, 6]: majority of the coating was dissolved
dissolution of microneedle coating (residual coating by fluorescence microscopy) [1, 7]: completely dissolved
distribution in skin, histology sections [2]: distribution of calcein along the periphery of the insertion point
residue on the skin after insertion [2]: No residue was observed

COc1cc(/C=C/C(=O)CC(=O)/C=C/c2ccc(O)c(OC)c2)ccc1O [curcumin]
solubility in water [3]: negligible

NC(=O)CC[C@@H]1NC(=O)[C@H](Cc2ccccc2)NC(=O)[C@H](Cc2ccc(O)cc2)NC(=O)CCSSC[C@@H](C(=O)N2CCC[C@H]2C(=O)N[C@H](CCCN=C(N)N)C(=O)NCC(N)=O)NC(=O)[C@H](CC(N)=O)NC1=O [desmopressin]
integrity after storage [4]: 98%

sulforhodamine
dissolution of microneedle coating (residual coating by fluorescence microscopy) [1, 6]: majority of the coating was dissolved
dissolution of microneedle coating (residual coating by fluorescence microscopy) [1, 7]: completely dissolved

B1: ovalbumin (protein, UniProt P01012 2-386, looked up)
Ovalbumin: GSIGAASMEFCFDVFKELKVHHANENIFYCPIAIMSALAMVYLGAKDSTRTQINKVVRFDKLPGFGDSIEAQCGTSVNVHSSLRDILNQITKPNDVYSFSLASRLYAEERYPILPEYLQCVKELYRGGLEPINFQTAADQARELINSWVESQTNGIIRNVLQPSSVDSQTAMVLVNAIVFKGLWEKAFKDEDTQAMPFRVTEQESKPVQMMYQIGLFRVASMASEKMKILELPFASGTMSMLVLLPDEVSGLEQLESIINFEKLTEWTSSNVMEERKIKVYLPRMKMEEKYNLTSVLMAMGITDVFSSSANLSGISSAESLKISQAVHAAHAEINEAGREVVGSAEAGVDAASVSEEFRADHPFLFCIKHIATNAVLFFGRCVSP
notes: model ovalbumin antigen delivered from coated microneedles
immune response [5]: strong immune response
